Laboratory results taken from ChEMBL document CHEMBL5352440, “Promising antimalarials targeting apicoplast DNA polymerase from Plasmodium falciparum” (Eur J Med Chem, 2022).
Activity calls are given as the source filed them. No cut-off for these calls is given here.

How the values were obtained:
[1] = tested on: Plasmodium falciparum; assay: Inhibition of plasmodium falciparum apicoplast DNA polymerase exonuclease activity using blunt-ended double stranded oligonucleotide with 2-aminopurine at position 1 on 3' end as substrate assessed as reduction in exonuclease proofreading activity at 3'-5' direction at 100 uM relative to control
[2] = target: T1, DNA-directed DNA polymerase (Enterobacteria phage T4) (UniProt P04415); assay: Inhibition of Enterobacteria T4 phage DNA polymerase
T1 sequence (whole entry): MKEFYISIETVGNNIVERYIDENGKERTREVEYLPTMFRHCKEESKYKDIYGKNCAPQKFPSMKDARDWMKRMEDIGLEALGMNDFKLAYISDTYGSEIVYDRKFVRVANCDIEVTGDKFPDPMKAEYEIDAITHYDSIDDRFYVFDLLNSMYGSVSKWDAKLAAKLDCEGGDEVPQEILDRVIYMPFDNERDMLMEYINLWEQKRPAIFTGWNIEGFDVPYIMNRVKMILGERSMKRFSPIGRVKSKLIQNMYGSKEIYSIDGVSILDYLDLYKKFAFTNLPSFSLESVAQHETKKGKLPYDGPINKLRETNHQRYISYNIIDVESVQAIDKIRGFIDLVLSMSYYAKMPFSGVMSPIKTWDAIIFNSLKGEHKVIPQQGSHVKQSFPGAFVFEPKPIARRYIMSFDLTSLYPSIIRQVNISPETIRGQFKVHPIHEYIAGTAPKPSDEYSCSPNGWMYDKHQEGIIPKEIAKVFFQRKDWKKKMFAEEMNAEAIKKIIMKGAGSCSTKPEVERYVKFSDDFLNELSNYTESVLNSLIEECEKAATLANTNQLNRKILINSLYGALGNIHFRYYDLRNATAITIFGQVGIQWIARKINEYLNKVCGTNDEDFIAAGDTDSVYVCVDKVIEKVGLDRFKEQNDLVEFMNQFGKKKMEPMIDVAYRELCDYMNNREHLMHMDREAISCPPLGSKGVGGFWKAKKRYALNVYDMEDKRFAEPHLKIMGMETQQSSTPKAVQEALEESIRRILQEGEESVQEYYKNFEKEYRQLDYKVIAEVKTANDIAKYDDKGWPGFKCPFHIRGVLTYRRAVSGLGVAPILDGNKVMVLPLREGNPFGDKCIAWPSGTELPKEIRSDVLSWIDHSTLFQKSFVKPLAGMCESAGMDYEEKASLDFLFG

[3] = target: DNA polymerase I (Escherichia coli) (UniProt P00582); assay: Inhibition of Escherichia coli DNA polymerase I
[4] = tested on: Plasmodium falciparum; assay: Non-competitive inhibition of Plasmodium falciparum apicoplast DNA polymerase assessed as inhibition constant for higher affinity site in presence of various concentrations of dNTPs by molecular beacon assay
[5] = tested on: Plasmodium falciparum; assay: Antiparasitic activity against Plasmodium falciparum NF54 with attB plasmid infected in red blood cells assessed as reduction in parasitemia incubated for 72 hrs; assay type: functional, organism-based, Red blood cell; details: NF54, Erythrocyte
[6] = tested on: Plasmodium falciparum; assay: Competitive inhibition of Plasmodium falciparum apicoplast DNA polymerase assessed as inhibition constant for lower affinity site in presence of various concentrations of dNTPs by molecular beacon assay
[7] = tested on: Plasmodium falciparum; assay: Inhibition of plasmodium falciparum apicoplast DNA polymerase exonuclease activity using blunt-ended double stranded oligonucleotide with 2-aminopurine at position 1 on 3' end as substrate assessed as exonuclease specific activity at 100 uM (reference value: 2.2 +/- 0.09%)
[8] = tested on: Plasmodium falciparum; assay: Non-competitive inhibition of Plasmodium falciparum apicoplast DNA polymerase assessed as inhibition constant for lower affinity site in presence of various concentrations of dNTPs by molecular beacon assay
[9] = tested on: Plasmodium falciparum; assay: Non-competitive inhibition of exonuclease deficient Plasmodium falciparum apicoplast DNA polymerase harboring wild type W512 residue assessed as inhibition constant for higher affinity site in presence of dNTPs
[10] = tested on: Plasmodium falciparum; assay: Non-competitive inhibition of exonuclease deficient Plasmodium falciparum apicoplast DNA polymerase W512A mutant assessed as inhibition constant for lower affinity site in presence of dNTPs
[11] = tested on: Plasmodium falciparum; assay: Non-competitive inhibition of exonuclease deficient Plasmodium falciparum apicoplast DNA polymerase W512A mutant assessed as inhibition constant for higher affinity site in presence of dNTPs
[12] = tested on: Plasmodium falciparum; assay: Non-competitive inhibition of exonuclease deficient Plasmodium falciparum apicoplast DNA polymerase harboring wild type W512 residue assessed as inhibition constant for lower affinity site in presence of dNTPs
[13] = Inhibition of plasmodium falciparum apicoplast DNA polymerase exonuclease activity using blunt-ended double stranded oligonucleotide with 2-aminopurine at position 1 on 3' end as substrate assessed as reduction in exonuclease proofreading activity at 3'-5' direction
[14] = tested on: Plasmodium falciparum; assay: Antiparasitic activity against Plasmodium falciparum NF54 with attB plasmid infected in red blood cells assessed as reduction in parasitemia incubated for 96 hrs in presence of isopentenyl pyrophosphate by flow cytometry analysis; assay type: functional, organism-based; details: Red blood cell

Chain of DNA polymerase I (Escherichia coli) (P00582 whole entry): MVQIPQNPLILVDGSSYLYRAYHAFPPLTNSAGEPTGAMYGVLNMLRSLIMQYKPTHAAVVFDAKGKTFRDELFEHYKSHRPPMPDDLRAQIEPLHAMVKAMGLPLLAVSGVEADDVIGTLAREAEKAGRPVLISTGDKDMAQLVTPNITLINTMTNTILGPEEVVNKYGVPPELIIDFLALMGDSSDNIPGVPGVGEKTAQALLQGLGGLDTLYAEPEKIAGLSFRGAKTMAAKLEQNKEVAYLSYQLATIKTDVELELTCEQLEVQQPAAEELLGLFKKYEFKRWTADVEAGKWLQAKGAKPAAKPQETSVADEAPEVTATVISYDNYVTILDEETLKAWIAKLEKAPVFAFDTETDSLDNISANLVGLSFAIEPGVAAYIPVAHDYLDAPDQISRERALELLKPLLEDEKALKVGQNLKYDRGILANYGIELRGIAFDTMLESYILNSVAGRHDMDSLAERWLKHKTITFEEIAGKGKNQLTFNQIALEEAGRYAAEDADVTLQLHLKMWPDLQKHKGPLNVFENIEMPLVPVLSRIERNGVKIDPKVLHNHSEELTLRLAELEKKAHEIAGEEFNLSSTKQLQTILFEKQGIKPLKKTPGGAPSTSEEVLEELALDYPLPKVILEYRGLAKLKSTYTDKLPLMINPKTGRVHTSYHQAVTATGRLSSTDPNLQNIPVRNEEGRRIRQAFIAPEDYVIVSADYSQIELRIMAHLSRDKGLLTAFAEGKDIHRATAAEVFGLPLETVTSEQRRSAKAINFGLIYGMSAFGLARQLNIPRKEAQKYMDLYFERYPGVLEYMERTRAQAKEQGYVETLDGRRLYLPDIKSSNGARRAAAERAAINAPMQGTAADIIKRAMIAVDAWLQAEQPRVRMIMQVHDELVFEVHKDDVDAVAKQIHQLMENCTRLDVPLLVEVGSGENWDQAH

| SMILES | inhibition [1] | inhibition [2] | inhibition [3] | KiH [4] | EC50 [5] | KiH [6] | Activity [7] | KiL [8] | KiH [9] | KiL [10] | KiH [11] | KiL [12] | IC50 [13] | Activity [14] |
| --- | --- | --- | --- | --- | --- | --- | --- | --- | --- | --- | --- | --- | --- | --- |
| CC(C)(C)c1ccc(NC(=O)Nc2c3c(nn2-c2cccc(C(F)(F)F)c2)CSC3)cc1 | < 50% | inactive | inactive | 2.17 µM | 4.3 µM | 11.9 µM | 1.4 U | – | – | – | – | – | – | – |
| CC(C)(C)c1ccc(S(=O)(=O)Nc2c3c(nn2-c2cccc(C(F)(F)F)c2)CSC3)cc1 | > 90% | inactive | inactive | – | > 20 µM | – | 0.06 U | – | – | – | – | – | – | – |
| Cc1cccc(-n2nc3c(c2NS(=O)(=O)c2ccc(C(C)(C)C)cc2)CSC3)c1 | – | inactive | inactive | – | > 20 µM | – | 2.3 U | – | – | – | – | – | – | – |
| CC(=O)Nc1c2c(nn1-c1cccc(Cl)c1)COC2 | – | inactive | inactive | – | > 20 µM | – | 2.2 U | – | – | – | – | – | – | – |
| CC(C)(C)c1ccc(NC(=O)Nc2c3c(nn2-c2ccncc2)COC3)cc1 | – | inactive | inactive | – | 3.3 µM | – | 1.3 U | – | – | – | – | – | – | – |
| Cc1cccc(-n2nc3c(c2NC(=O)Nc2ccc(C(C)(C)C)cc2)CSC3)c1 | < 50% | inactive | inactive | – | 3.1 µM | – | 1.2 U | – | – | – | – | – | – | – |
| Cc1ccc(-n2nc3c(c2NS(=O)(=O)c2ccc(C(C)(C)C)cc2)CSC3)cc1 | – | inactive | inactive | – | > 20 µM | – | 2.2 U | – | – | – | – | – | – | – |
| CC(C)(C)c1ccc(C(=O)Nc2c3c(nn2-c2ccc(Cl)cc2)CSC3)cc1 | < 50% | inactive | inactive | – | 4.2 µM | – | 2.4 U | – | – | – | – | – | – | – |
| CC(C)(C)c1ccc(NC(=O)Nc2c3c(nn2-c2cccc(Cl)c2)CSC3)cc1 | < 50% | inactive | inactive | 2.73 µM | 1.3 µM | – | 2.6 U | 12.2 µM | 2.73 µM | 6.8 µM | 4.65 µM | 12.2 µM | – | – |
| CC(C)(C)c1ccc(C(=O)Nc2c3c(nn2-c2ccc(C(F)(F)F)cc2)CSC3)cc1 | < 50% | inactive | inactive | – | 4.8 µM | – | 2 U | – | – | – | – | – | – | – |
| Cc1ccc(-n2nc3c(c2NC(=O)Nc2ccc(C(C)(C)C)cc2)CSC3)cc1 | < 50% | inactive | inactive | – | 4.5 µM | – | 1.8 U | – | – | – | – | – | – | – |
| CC(C)(C)c1ccc(C(=O)Nc2c3c(nn2-c2cccc(Cl)c2)C[S+]([O-])C3)cc1 (centres undefined) | – | inactive | inactive | – | 4.8 µM | – | 1.9 U | – | – | – | – | – | – | – |
| CC(C)(C)c1ccc(NC(=O)Nc2c3c(nn2-c2ccc(Cl)cc2)CSC3)cc1 | < 50% | inactive | inactive | 1.97 µM | 1 µM | – | 2.1 U | 15 µM | – | – | – | – | – | – |
| O=C(Nc1c2c(nn1-c1cccc(Cl)c1)COC2)C(F)(F)F | – | inactive | inactive | – | > 20 µM | – | 2.3 U | – | – | – | – | – | – | – |
| CC(C)(C)C(=O)Nc1c2c(nn1-c1cccc(Cl)c1)COC2 | – | inactive | inactive | – | > 20 µM | – | 2.6 U | – | – | – | – | – | – | – |
| O=C(Nc1c2c(nn1-c1cccc(Cl)c1)COC2)c1ccc2ccccc2c1 | – | inactive | inactive | – | 8 µM | – | 1.8 U | – | – | – | – | – | – | – |
| CC(C)(C)c1ccc(C(=O)Nc2c3c(nn2-c2cccc(C(F)(F)F)c2)CSC3)cc1 | < 50% | inactive | inactive | – | 2 µM | – | 2.4 U | – | – | – | – | – | – | – |
| Cc1cccc(-n2nc3c(c2NC(=O)c2ccc(C(C)(C)C)cc2)CSC3)c1 | < 50% | inactive | inactive | – | 5.9 µM | – | 2.3 U | – | – | – | – | – | – | – |
| CC(C)(C)c1ccc(C(=O)Nc2c3c(nn2-c2cccc(Cl)c2)COC3)cc1 | – | inactive | inactive | – | 4.6 µM | – | 1.2 U | – | – | – | – | – | – | – |
| CC(C)(C)c1ccc(S(=O)(=O)Nc2c3c(nn2-c2ccc(C(F)(F)F)cc2)CSC3)cc1 | > 90% | inactive | inactive | – | > 20 µM | – | 0.01 U | – | – | – | – | – | 16 µM | – |
| CC(C)(C)c1ccc(S(=O)(=O)Nc2c3c(nn2-c2ccc(Cl)cc2)CSC3)cc1 | > 90% | inactive | inactive | – | > 20 µM | – | 0.06 U | – | – | – | – | – | 21 µM | – |
| O=C(Nc1c2c(nn1-c1cccc(Cl)c1)COC2)c1ccc(-c2ccccc2)cc1 | – | inactive | inactive | – | > 20 µM | – | 1.2 U | – | – | – | – | – | – | – |
| CC(C)(C)c1ccc(C(=O)Nc2c3c(nn2-c2cccc(Cl)c2)CSC3)cc1 | < 50% | inactive | inactive | 5.98 µM | 4 µM | – | 1.6 U | 15.9 µM | – | – | – | – | – | Active |
| CC(C)(C)c1ccc(S(=O)(=O)Nc2c3c(nn2-c2cccc(Cl)c2)CSC3)cc1 | > 90% | inactive | inactive | – | > 20 µM | – | 0.4 U | – | – | – | – | – | 40 µM | – |
| Cc1ccc(-n2nc3c(c2NC(=O)c2ccc(C(C)(C)C)cc2)CSC3)cc1 | < 50% | inactive | inactive | – | > 20 µM | – | 1.5 U | – | – | – | – | – | – | – |
| CC(C)(C)c1ccc(NC(=O)Nc2c3c(nn2-c2ccc(C(F)(F)F)cc2)CSC3)cc1 | < 50% | inactive | inactive | – | 1.2 µM | – | 2.1 U | – | – | – | – | – | – | – |
| CC(C)(C)c1ccc(NC(=O)Nc2c3c(nn2-c2cccc(Cl)c2)COC3)cc1 | – | inactive | inactive | – | 0.74 µM | – | 2.4 U | – | – | – | – | – | – | – |
| CC(C)(C)c1ccc(NC(=O)Nc2c3c(nn2-c2cnccn2)COC3)cc1 | – | inactive | inactive | – | 2.5 µM | – | 1.7 U | – | – | – | – | – | – | – |
